Source: US20240025884A1 (Dong-A ST Co., Ltd., priority 2022, published 2024)

Molecular target: GCN2 (Homo sapiens (Human), UniProt Q9P2K8)
Experiment: GCN2 Biochemical Assay (TR-FRET, GFP-eIF2S1 substrate phosphorylation)
Details: read-out: IC50 (GCN2 Inhibitory Activity)
How it was run: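 TR-FRET readout (Ex 340, Em 490/520 nm) after 2–3 h with Tb-labelled phospho-eIF2S1 antibody in stop mix, following a 70 min room-temperature kinase step. Reaction: in-house GCN2, GFP-eIF2S1, ATP, tRNA in Tris pH 7.5 (2× stocks 1.6 nM, 50 nM, 0.2 mM); compounds tested at 10 concentrations, with a phospho-substrate artifact counter-plate.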

Sequence of GCN2 (Q9P2K8 whole entry): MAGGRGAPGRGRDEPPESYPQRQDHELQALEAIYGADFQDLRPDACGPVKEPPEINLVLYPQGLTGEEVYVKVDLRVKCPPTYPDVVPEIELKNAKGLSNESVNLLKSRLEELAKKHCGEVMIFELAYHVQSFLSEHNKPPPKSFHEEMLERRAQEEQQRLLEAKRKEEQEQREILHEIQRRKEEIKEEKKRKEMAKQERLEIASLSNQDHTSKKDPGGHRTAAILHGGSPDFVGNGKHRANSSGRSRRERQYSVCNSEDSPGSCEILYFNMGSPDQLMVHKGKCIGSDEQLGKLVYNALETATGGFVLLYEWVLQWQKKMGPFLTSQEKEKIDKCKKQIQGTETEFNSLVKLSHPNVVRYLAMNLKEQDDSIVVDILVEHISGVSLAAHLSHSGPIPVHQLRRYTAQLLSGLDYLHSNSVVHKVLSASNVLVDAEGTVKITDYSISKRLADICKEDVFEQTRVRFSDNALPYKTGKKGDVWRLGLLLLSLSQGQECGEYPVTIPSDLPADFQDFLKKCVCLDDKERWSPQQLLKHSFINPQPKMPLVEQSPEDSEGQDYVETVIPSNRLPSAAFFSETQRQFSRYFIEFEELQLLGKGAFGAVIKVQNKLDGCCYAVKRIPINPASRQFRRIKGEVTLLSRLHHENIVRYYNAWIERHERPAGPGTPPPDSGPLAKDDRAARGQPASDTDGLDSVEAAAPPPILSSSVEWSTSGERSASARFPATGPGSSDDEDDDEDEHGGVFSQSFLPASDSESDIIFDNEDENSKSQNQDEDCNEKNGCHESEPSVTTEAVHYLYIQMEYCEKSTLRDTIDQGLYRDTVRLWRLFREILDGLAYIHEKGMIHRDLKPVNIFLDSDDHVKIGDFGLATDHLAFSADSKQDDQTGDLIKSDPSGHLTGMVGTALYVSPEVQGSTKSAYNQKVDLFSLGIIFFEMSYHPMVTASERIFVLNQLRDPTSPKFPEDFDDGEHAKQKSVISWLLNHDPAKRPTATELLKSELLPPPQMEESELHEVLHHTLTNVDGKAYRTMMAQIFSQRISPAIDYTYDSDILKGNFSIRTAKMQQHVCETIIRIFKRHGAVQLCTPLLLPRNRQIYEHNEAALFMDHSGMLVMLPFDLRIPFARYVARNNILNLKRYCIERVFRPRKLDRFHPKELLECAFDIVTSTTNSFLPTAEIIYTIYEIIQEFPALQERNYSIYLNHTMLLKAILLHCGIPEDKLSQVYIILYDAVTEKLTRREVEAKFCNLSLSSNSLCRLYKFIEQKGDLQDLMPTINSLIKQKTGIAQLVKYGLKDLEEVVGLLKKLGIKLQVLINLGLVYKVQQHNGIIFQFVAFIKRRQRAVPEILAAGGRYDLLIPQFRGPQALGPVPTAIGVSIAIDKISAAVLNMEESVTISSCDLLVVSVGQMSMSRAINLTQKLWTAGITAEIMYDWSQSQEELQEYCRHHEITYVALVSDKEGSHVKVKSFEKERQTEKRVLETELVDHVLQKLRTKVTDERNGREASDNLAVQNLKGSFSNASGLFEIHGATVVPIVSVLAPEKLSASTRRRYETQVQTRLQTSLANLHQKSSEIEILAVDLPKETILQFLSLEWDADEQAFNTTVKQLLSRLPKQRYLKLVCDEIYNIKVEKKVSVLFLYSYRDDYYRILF

| IC50 [nM] | Structure (SMILES) |
| --- | --- |
| < 10 | Cc1cnc(Nc2cc(C)n(C)n2)nc1-c1c[nH]c2c(NC(=O)CN3CC[C@H](Oc4cc(N5CCCC5)ncn4)C3)cccc12 [Example 158, (S)-N-(3-(2-((1,5-dimethyl-1H-pyrazol-3-yl)amino)-5-methylpyrimidin-4-yl)-1H-indol-7-yl)-2-(3-((6-(pyrrolidin-1-yl)pyrimidin-4-yl)oxy)pyrrolidin-1-yl)acetamide] |
| < 10 | Cc1cnc(Nc2cc(C)n(C)n2)nc1-c1c[nH]c2c(NC(=O)CN3CC[C@H](Oc4cc(N5CCC(O)C5)ncn4)C3)cccc12 (stereo partly drawn) [Example 159, N-(3-(2-((1,5-dimethyl-1H-pyrazol-3-yl)amino)-5-methylpyrimidin-4-yl)-1H-indol-7-yl)-2-((3S)-3-((6-(3-hydroxypyrrolidin-1-yl)pyrimidin-4-yl)oxy)pyrrolidin-1-yl)acetamide] |
| < 10 | Cc1cnc(Nc2cc(C)n(C)n2)nc1-c1c[nH]c2c(NC(=O)CN3CC[C@H](Oc4cc(N5CC[C@@H](O)C5)ncn4)C3)cccc12 [Example 160, N-(3-(2-((1,5-dimethyl-1H-pyrazol-3-yl)amino)-5-methylpyrimidin-4-yl)-1H-indol-7-yl)-2-((S)-3-((6-((R)-3-hydroxypyrrolidin-1-yl)pyrimidin-4-yl)oxy)pyrrolidin-1-yl)acetamide] |
| < 10 | Cc1cnc(Nc2cc(C)n(C)n2)nc1-c1c[nH]c2c(NC(=O)CN3CC[C@H](Oc4cc(N5CC[C@H](O)C5)ncn4)C3)cccc12 [Example 161, N-(3-(2-((1,5-dimethyl-1H-pyrazol-3-yl)amino)-5-methylpyrimidin-4-yl)-1H-indol-7-yl)-2-((S)-3-((6-((S)-3-hydroxypyrrolidin-1-yl)pyrimidin-4-yl)oxy)pyrrolidin-1-yl)acetamide] |
| < 10 | Cc1cnc(Nc2cc(C)n(C)n2)nc1-c1c[nH]c2c(NC(=O)CN3CC[C@H](Oc4cc(N5CCCCC5)ncn4)C3)cccc12 [Example 162, (S)-N-(3-(2-((1,5-dimethyl-1H-pyrazol-3-yl)amino)-5-methylpyrimidin-4-yl)-1H-indol-7-yl)-2-(3-((6-(piperidin-1-yl)pyrimidin-4-yl)oxy)pyrrolidin-1-yl)acetamide] |
| < 10 | Cc1cnc(Nc2cc(C)n(C)n2)nc1-c1c[nH]c2c(NC(=O)CN3CC[C@H](Oc4cc(N5CCC(O)CC5)ncn4)C3)cccc12 [Example 163, (S)-N-(3-(2-((1,5-dimethyl-1H-pyrazol-3-yl)amino)-5-methylpyrimidin-4-yl)-1H-indol-7-yl)-2-(3-((6-(4-hydroxypiperidin-1-yl)pyrimidin-4-yl)oxy)pyrrolidin-1-yl)acetamide] |
| < 10 | Cc1cnc(Nc2cc(C)n(C)n2)nc1-c1c[nH]c2c(NC(=O)CN3CC[C@H](Oc4cc(N5CCOCC5)ncn4)C3)cccc12 [Example 164, (S)-N-(3-(2-((1,5-dimethyl-1H-pyrazol-3-yl)amino)-5-methylpyrimidin-4-yl)-1H-indol-7-yl)-2-(3-((6-morpholinopyrimidin-4-yl)oxy)pyrrolidin-1-yl)acetamide] |
| < 10 | Cc1cnc(Nc2cc(C)n(C)n2)nc1-c1c[nH]c2c(NC(=O)CN3CC[C@H](Oc4cc(N5CCN(C)CC5)ncn4)C3)cccc12 [Example 165, (S)-N-(3-(2-((1,5-dimethyl-1H-pyrazol-3-yl)amino)-5-methylpyrimidin-4-yl)-1H-indol-7-yl)-2-(3-((6-(4-methylpiperazin-1-yl)pyrimidin-4-yl)oxy)pyrrolidin-1-yl)acetamide] |
| < 10 | CNc1cc(O[C@H]2CCN(CC(=O)Nc3cccc4c(-c5nc(Nc6cc(C)n(C)n6)ncc5C)c[nH]c34)C2)nc(N)n1 [Example 166, (S)-2-(3-((2-amino-6-(methylamino)pyrimidin-4-yl)oxy)pyrrolidin-1-yl)-N-(3-(2-((1,5-dimethyl-1H-pyrazol-3-yl)amino)-5-methylpyrimidin-4-yl)-1H-indol-7-yl)acetamide] |
| 10 to 100 | Cc1cnc(Nc2cc(C)n(C)n2)nc1-c1c[nH]c2c(NC(=O)CN3CC[C@H](Oc4cc(N5CCCC5)nc(N)n4)C3)cccc12 [Example 167, (S)-2-(3-((2-amino-6-(pyrrolidin-1-yl)pyrimidin-4-yl)oxy)pyrrolidin-1-yl)-N-(3-(2-((1,5-dimethyl-1H-pyrazol-3-yl)amino)-5-methylpyrimidin-4-yl)-1H-indol-7-yl)acetamide] |
| < 10 | Cc1cnc(Nc2cc(C)n(C)n2)nc1-c1c[nH]c2c(NC(=O)CN3CC[C@H](Oc4nccc(N)n4)C3)cccc12 [Example 168, (S)-2-(3-((4-aminopyrimidin-2-yl)oxy)pyrrolidin-1-yl)-N-(3-(2-((1,5-dimethyl-1H-pyrazol-3-yl)amino)-5-methylpyrimidin-4-yl)-1H-indol-7-yl)acetamide] |
| < 10 | CNc1ccnc(O[C@H]2CCN(CC(=O)Nc3cccc4c(-c5nc(Nc6cc(C)n(C)n6)ncc5C)c[nH]c34)C2)n1 [Example 169, (S)-N-(3-(2-((1,5-dimethyl-1H-pyrazol-3-yl)amino)-5-methylpyrimidin-4-yl)-1H-indol-7-yl)-2-(3-((4-(methylamino)pyrimidin-2-yl)oxy)pyrrolidin-1-yl)acetamide] |
| < 10 | Cc1cnc(Nc2cc(C)n(C)n2)nc1-c1c[nH]c2c(NC(=O)CN3CC[C@H](Oc4nccc(N(C)C)n4)C3)cccc12 [Example 170, (S)-N-(3-(2-((1,5-dimethyl-1H-pyrazol-3-yl)amino)-5-methylpyrimidin-4-yl)-1H-indol-7-yl)-2-(3-((4-(dimethylamino)pyrimidin-2-yl)oxy)pyrrolidin-1-yl)acetamide] |
| < 10 | CCN(C)c1ccnc(O[C@H]2CCN(CC(=O)Nc3cccc4c(-c5nc(Nc6cc(C)n(C)n6)ncc5C)c[nH]c34)C2)n1 [Example 171, (S)-N-(3-(2-((1,5-dimethyl-1H-pyrazol-3-yl)amino)-5-methylpyrimidin-4-yl)-1H-indol-7-yl)-2-(3-((4-(ethyl(methyl)amino)pyrimidin-2-yl)oxy)pyrrolidin-1-yl)acetamide] |
| < 10 | CCN(CC)c1ccnc(O[C@H]2CCN(CC(=O)Nc3cccc4c(-c5nc(Nc6cc(C)n(C)n6)ncc5C)c[nH]c34)C2)n1 [Example 172, (S)-2-(3-((4-(diethylamino)pyrimidin-2-yl)oxy)pyrrolidin-1-yl)-N-(3-(2-((1,5-dimethyl-1H-pyrazol-3-yl)amino)-5-methylpyrimidin-4-yl)-1H-indol-7-yl)acetamide] |
| < 10 | Cc1cnc(Nc2cc(C)n(C)n2)nc1-c1c[nH]c2c(NC(=O)CN3CC[C@H](Oc4nccc(N5CCCC5)n4)C3)cccc12 [Example 173, (S)-N-(3-(2-((1,5-dimethyl-1H-pyrazol-3-yl)amino)-5-methylpyrimidin-4-yl)-1H-indol-7-yl)-2-(3-((4-(pyrrolidin-1-yl)pyrimidin-2-yl)oxy)pyrrolidin-1-yl)acetamide] |
| < 10 | Cc1cnc(Nc2cc(C)n(C)n2)nc1-c1c[nH]c2c(NC(=O)CN3CC[C@H](Oc4nccc(N5CCCCC5)n4)C3)cccc12 [Example 174, (S)-N-(3-(2-((1,5-dimethyl-1H-pyrazol-3-yl)amino)-5-methylpyrimidin-4-yl)-1H-indol-7-yl)-2-(3-((4-(piperidin-1-yl)pyrimidin-2-yl)oxy)pyrrolidin-1-yl)acetamide] |
| < 10 | Cc1cnc(Nc2cc(C)n(C)n2)nc1-c1c[nH]c2c(NC(=O)CN3CC[C@H](Oc4nccc(NC5CC5)n4)C3)cccc12 [Example 175, (S)-2-(3-((4-(cyclopropylamino)pyrimidin-2-yl)oxy)pyrrolidin-1-yl)-N-(3-(2-((1,5-dimethyl-1H-pyrazol-3-yl)amino)-5-methylpyrimidin-4-yl)-1H-indol-7-yl)acetamide] |
| 10 to 100 | Cc1cnc(Nc2cc(C)n(C)n2)nc1-c1c[nH]c2c(NC(=O)CN3CC[C@H](Oc4ncc(F)c(N)n4)C3)cccc12 [Example 176, (S)-2-(3-((4-amino-5-fluoropyrimidin-2-yl)oxy)pyrrolidin-1-yl)-N-(3-(2-((1,5-dimethyl-1H-pyrazol-3-yl)amino)-5-methylpyrimidin-4-yl)-1H-indol-7-yl)acetamide] |
| < 10 | CNc1nc(O[C@H]2CCN(CC(=O)Nc3cccc4c(-c5nc(Nc6cc(C)n(C)n6)ncc5C)c[nH]c34)C2)ncc1F [Example 177, (S)-N-(3-(2-((1,5-dimethyl-1H-pyrazol-3-yl)amino)-5-methylpyrimidin-4-yl)-1H-indol-7-yl)-2-(3-((5-fluoro-4-(methylamino)pyrimidin-2-yl)oxy)pyrrolidin-1-yl)acetamide] |
| < 10 | CCNc1nc(O[C@H]2CCN(CC(=O)Nc3cccc4c(-c5nc(Nc6cc(C)n(C)n6)ncc5C)c[nH]c34)C2)ncc1F [Example 178, (S)-N-(3-(2-((1,5-dimethyl-1H-pyrazol-3-yl)amino)-5-methylpyrimidin-4-yl)-1H-indol-7-yl)-2-(3-((4-(ethylamino)-5-fluoropyrimidin-2-yl)oxy)pyrrolidin-1-yl)acetamide] |
| < 10 | Cc1cnc(Nc2cc(C)n(C)n2)nc1-c1c[nH]c2c(NC(=O)CN3CC[C@H](Oc4ncc(F)c(NC5CC5)n4)C3)cccc12 [Example 179, (S)-2-(3-((4-(cyclopropylamino)-5-fluoropyrimidin-2-yl)oxy)pyrrolidin-1-yl)-N-(3-(2-((1,5-dimethyl-1H-pyrazol-3-yl)amino)-5-methylpyrimidin-4-yl)-1H-indol-7-yl)acetamide] |
| 10 to 100 | Cc1cnc(Nc2cc(C)n(C)n2)nc1-c1c[nH]c2c(NC(=O)CN3CC[C@H](Oc4ncc(F)c(NC5CCCCC5)n4)C3)cccc12 [Example 180, (S)-2-(3-((4-(cyclohexylamino)-5-fluoropyrimidin-2-yl)oxy)pyrrolidin-1-yl)-N-(3-(2-((1,5-dimethyl-1H-pyrazol-3-yl)amino)-5-methylpyrimidin-4-yl)-1H-indol-7-yl)acetamide] |
| < 10 | Cc1cnc(Nc2cc(C)n(C)n2)nc1-c1c[nH]c2c(NC(=O)CN3CC[C@H](Oc4ncc(F)c(N(C)C)n4)C3)cccc12 [Example 181, (S)-N-(3-(2-((1,5-dimethyl-1H-pyrazol-3-yl)amino)-5-methylpyrimidin-4-yl)-1H-indol-7-yl)-2-(3-((4-(dimethylamino)-5-fluoropyrimidin-2-yl)oxy)pyrrolidin-1-yl)acetamide] |
